Reference: publication PMC7179958 (CPT: Pharmacometrics & Systems Pharmacology, 2020)

Legend:
[1] = Static R value for clinical TrDDI (FDA guidance); design: species or system human; conditions: eltrombopag victim, pitavastatin perpetrator; versus FDA cut‐offs
[2] = test system: UDP‐glucuronosyltransferase (UGT)1A3 and 2B7 and cytochrome P450 (CYP)2C9; conditions: inhibition by eltrombopag of UGT1A3, 2B7 and CYP2C9 (exception CYP1B1); cited from earlier work
[3] = cited from earlier work
human hepatocytes = assay: Uptake of pitavastatin and eltrombopag in cryopreserved human hepatocytes (oil spin method), comeasurement, micro‐rate constant mechanistic model; assay type: in vitro ADME
Procedure: Human hepatocytes were obtained from BioIVT (Brussels, Belgium; lot number: LYB; 10 donor LiverPool (8 Caucasians, 1 African American, and 1 Hispanic) and thawed according to supplier guidelines in Leibovitz L15 medium. Hepatocytes were kept on ice prior to use and were used within 3 hours of defrosting.
Cells were separated using an oil spin method similar to the literature. ^11 , ^17 After separation, the tubes were frozen on dry ice and the bottom layer was cut off.
A dilution factor of 100 was used to scale from pmol/mL/1 × 10^5 cells to nmol/mL/1 × 10^6 cells.
Passive rate constants for movement into and out of the cell (k f.X and k bX, respectively) as well as uptake transporter‐mediated rate constants for association to the transporter (k aX) and dissociation (k dX) and translocation (k tX) from the transporter into the medium and cell, respectively. […] The sets of ODEs for all the models (models 1–4; Table 1 ) tested for structural identifiability and used for parameter estimation are included in the Supplemental Material .
Parameter estimation was conducted within Monolix 2018 R2 (Lixoft, Antony, France) for each concentration and experiment as an individual data set, where to ensure positivity, a log‐normal distribution was assumed for each parameter, with a proportional residual error model for the observations.
Hepatocyte Incubations. […] Eltrombopag was dissolved in DMSO to give 30 µmol/mL, then diluted 333-fold to 90 nmol/mL in Leibovitz L15 medium. […] Briefly, 0.5 mL microtubes (12049877, Thermo-Fisher Scientific, Gothenburg, Sweden) layered with 15 µL of 4 % cesium chloride onto which 140 µL of 8:2 silicone oil: mineral oil, with oil red O was added. Samples were taken by transferring 100 µL of hepatocyte suspension into the microtube and spun for 15 s in a Minispin centrifuge (Eppendorf, Horsholm, Denmark), during which time the hepatocytes passed through the oil into the cesium chloride bottom layer. The tubes were then frozen on dry ice and the bottom layer cut off once frozen into a 1 mL deep well plate (260252, Thermo-Fisher Scientific, Gothenburg, Sweden).
Sample Extraction. 50 µL of water suitable for UPLC (MilliQ ELGA water, Merck-Millipore, Solna, Sweden) and 150 µL of stop solution (50:50 MeOH:MeCN, containing 0.8 % formic acid and 4 pmol/mL 5,5-diethyl-1,3-diphenyl-2-iminobarbituric acid as internal standard) were added to the frozen samples of the cut-off tube bottoms. Samples were mixed on a plate shaker for 1 h and then stored at – 80 °C overnight. Prior to analysis, samples were defrosted and mixed for 30 min before centrifugation of the plates at 4000 g for 20 min at 4 °C. Samples were transferred to a conical bottomed 96 well plate for analysis (249944, Thermo-Fisher Scientific, Gothenburg, Sweden) and diluted 1:1 with MilliQ ELGA water.
Mechanistic Modeling. […] An estimate for the total amount of transporters (To) can be obtained during the mechanistic modeling process (9, 10), and therefore Tf can be replaced using the conservation law during parameter estimation:
Parameter estimation for all model were conducted within the Monolix suite 2018 R2 (Lixoft, Antony, France) where to ensure positivity, a log-normal distribution was assumed for each parameter in the candidate models, together with a proportional residual error model for the observations.

[4] = cited from earlier work; remark: listed apart in the source
[5] = model 1, conditional mode (minimum‐maximum) for 1 × 10^6 cells
[6] = model 1 micro‐rate constants, conditional mode (minimum‐maximum) for 1 × 10^6 cells
[7] = eltrombopag only, single 75 mg, plasma

R value, static model [1]: below the cut‐offs | F T.X, fraction transported (human hepatocytes; CLup.X/(CLup.X+Pdif.X), Eq. 4): 0.12 (0.09–0.2) | DV = amount of measured pitavastatin and/or eltrombopag (human hepatocytes; ID 29, pitavastatin AMT 10 nmol at TIME 15, TIME 15.5 min (normalised to post eltrombopag incubation)): 1035.93 nmol | DV = amount of measured pitavastatin and/or eltrombopag (human hepatocytes; ID 29, pitavastatin AMT 10 nmol at TIME 15, TIME 16 min): 1126.83 nmol | DV = amount of measured pitavastatin and/or eltrombopag (human hepatocytes; ID 29, pitavastatin AMT 10 nmol at TIME 15, TIME 17 min): 1088.94 nmol | DV = amount of measured pitavastatin and/or eltrombopag (human hepatocytes; ID 29, pitavastatin AMT 10 nmol at TIME 15, TIME 20 min): 1007.88 nmol | DV = amount of measured pitavastatin and/or eltrombopag (human hepatocytes; ID 29, pitavastatin AMT 10 nmol at TIME 15, TIME 25 min): 1166.93 nmol | DV = amount of measured pitavastatin and/or eltrombopag (human hepatocytes; ID 29, pitavastatin AMT 10 nmol at TIME 15, TIME 45 min): 1002.58 nmol | DV = amount of measured pitavastatin and/or eltrombopag (human hepatocytes; ID 30, pitavastatin AMT 10 nmol at TIME 15, TIME 15.25 min): 729.81 nmol | DV = amount of measured pitavastatin and/or eltrombopag (human hepatocytes; ID 30, pitavastatin AMT 10 nmol at TIME 15, TIME 15.5 min): 682.02 nmol | DV = amount of measured pitavastatin and/or eltrombopag (human hepatocytes; ID 30, pitavastatin AMT 10 nmol at TIME 15, TIME 16 min): 633.62 nmol | DV = amount of measured pitavastatin and/or eltrombopag (human hepatocytes; ID 30, pitavastatin AMT 10 nmol at TIME 15, TIME 17 min): 618.74 nmol | DV = amount of measured pitavastatin and/or eltrombopag (human hepatocytes; ID 30, pitavastatin AMT 10 nmol at TIME 15, TIME 20 min): 608.21 nmol | DV = amount of measured pitavastatin and/or eltrombopag (human hepatocytes; ID 30, pitavastatin AMT 10 nmol at TIME 15, TIME 25 min): 683.69 nmol | DV = amount of measured pitavastatin and/or eltrombopag (human hepatocytes; ID 30, pitavastatin AMT 10 nmol at TIME 15, TIME 45 min): 599.94 nmol | DV = amount of measured pitavastatin and/or eltrombopag (human hepatocytes; ID 31, pitavastatin AMT 30 nmol at TIME 15, TIME 15.25 min): 1382.52 nmol | DV = amount of measured pitavastatin and/or eltrombopag (human hepatocytes; ID 31, pitavastatin AMT 30 nmol at TIME 15, TIME 15.5 min): 1329.86 nmol | DV = amount of measured pitavastatin and/or eltrombopag (human hepatocytes; ID 31, pitavastatin AMT 30 nmol at TIME 15, TIME 16 min): 1156.33 nmol | DV = amount of measured pitavastatin and/or eltrombopag (human hepatocytes; ID 31, pitavastatin AMT 30 nmol at TIME 15, TIME 17 min): 1204.59 nmol | DV = amount of measured pitavastatin and/or eltrombopag (human hepatocytes; ID 31, pitavastatin AMT 30 nmol at TIME 15, TIME 20 min): 1196.1 nmol | DV = amount of measured pitavastatin and/or eltrombopag (human hepatocytes; ID 31, pitavastatin AMT 30 nmol at TIME 15, TIME 25 min): 890.75 nmol | DV = amount of measured pitavastatin and/or eltrombopag (human hepatocytes; ID 31, pitavastatin AMT 30 nmol at TIME 15, TIME 45 min): 983.35 nmol | DV = amount of measured pitavastatin and/or eltrombopag (human hepatocytes; ID 32, pitavastatin AMT 30 nmol at TIME 15, TIME 15.25 min): 1189.57 nmol | DV = amount of measured pitavastatin and/or eltrombopag (human hepatocytes; ID 32, pitavastatin AMT 30 nmol at TIME 15, TIME 15.5 min): 1153.93 nmol | DV = amount of measured pitavastatin and/or eltrombopag (human hepatocytes; ID 32, pitavastatin AMT 30 nmol at TIME 15, TIME 16 min): 1218.64 nmol | DV = amount of measured pitavastatin and/or eltrombopag (human hepatocytes; ID 32, pitavastatin AMT 30 nmol at TIME 15, TIME 17 min): 1146.32 nmol | DV = amount of measured pitavastatin and/or eltrombopag (human hepatocytes; ID 32, pitavastatin AMT 30 nmol at TIME 15, TIME 20 min): 1061.43 nmol | DV = amount of measured pitavastatin and/or eltrombopag (human hepatocytes; ID 32, pitavastatin AMT 30 nmol at TIME 15, TIME 25 min): 1010.46 nmol | DV = amount of measured pitavastatin and/or eltrombopag (human hepatocytes; ID 32, pitavastatin AMT 30 nmol at TIME 15, TIME 45 min): 1102.17 nmol | DV = amount of measured pitavastatin and/or eltrombopag (human hepatocytes; ID 33, pitavastatin AMT 30 nmol at TIME 15, TIME 15.25 min): 668.8 nmol | DV = amount of measured pitavastatin and/or eltrombopag (human hepatocytes; ID 33, pitavastatin AMT 30 nmol at TIME 15, TIME 15.5 min): 715.76 nmol | DV = amount of measured pitavastatin and/or eltrombopag (human hepatocytes; ID 33, pitavastatin AMT 30 nmol at TIME 15, TIME 16 min): 633.41 nmol | DV = amount of measured pitavastatin and/or eltrombopag (human hepatocytes; ID 33, pitavastatin AMT 30 nmol at TIME 15, TIME 17 min): 623.34 nmol | DV = amount of measured pitavastatin and/or eltrombopag (human hepatocytes; ID 33, pitavastatin AMT 30 nmol at TIME 15, TIME 20 min): 652.6 nmol | DV = amount of measured pitavastatin and/or eltrombopag (human hepatocytes; ID 33, pitavastatin AMT 30 nmol at TIME 15, TIME 25 min): 543.53 nmol | DV = amount of measured pitavastatin and/or eltrombopag (human hepatocytes; ID 33, pitavastatin AMT 30 nmol at TIME 15, TIME 45 min): 574.79 nmol | DV = amount of measured pitavastatin and/or eltrombopag (human hepatocytes; ID 34, pitavastatin AMT 100 nmol at TIME 15, TIME 15.25 min): 1383.49 nmol | DV = amount of measured pitavastatin and/or eltrombopag (human hepatocytes; ID 34, pitavastatin AMT 100 nmol at TIME 15, TIME 15.5 min): 1026.05 nmol | DV = amount of measured pitavastatin and/or eltrombopag (human hepatocytes; ID 34, pitavastatin AMT 100 nmol at TIME 15, TIME 16 min): 1256.06 nmol | DV = amount of measured pitavastatin and/or eltrombopag (human hepatocytes; ID 34, pitavastatin AMT 100 nmol at TIME 15, TIME 17 min): 1131.42 nmol | DV = amount of measured pitavastatin and/or eltrombopag (human hepatocytes; ID 34, pitavastatin AMT 100 nmol at TIME 15, TIME 20 min): 983.13 nmol | DV = amount of measured pitavastatin and/or eltrombopag (human hepatocytes; ID 34, pitavastatin AMT 100 nmol at TIME 15, TIME 25 min): 1130.84 nmol | DV = amount of measured pitavastatin and/or eltrombopag (human hepatocytes; ID 34, pitavastatin AMT 100 nmol at TIME 15, TIME 45 min): 1000.32 nmol | DV = amount of measured pitavastatin and/or eltrombopag (human hepatocytes; ID 36, pitavastatin AMT 100 nmol at TIME 15, TIME 15.25 min): 470.72 nmol | DV = amount of measured pitavastatin and/or eltrombopag (human hepatocytes; ID 36, pitavastatin AMT 100 nmol at TIME 15, TIME 15.5 min): 453.1 nmol | DV = amount of measured pitavastatin and/or eltrombopag (human hepatocytes; ID 36, pitavastatin AMT 100 nmol at TIME 15, TIME 16 min): 430.66 nmol | DV = amount of measured pitavastatin and/or eltrombopag (human hepatocytes; ID 36, pitavastatin AMT 100 nmol at TIME 15, TIME 17 min): 384.81 nmol | DV = amount of measured pitavastatin and/or eltrombopag (human hepatocytes; ID 36, pitavastatin AMT 100 nmol at TIME 15, TIME 20 min): 459.69 nmol | DV = amount of measured pitavastatin and/or eltrombopag (human hepatocytes; ID 36, pitavastatin AMT 100 nmol at TIME 15, TIME 25 min): 410.46 nmol | DV = amount of measured pitavastatin and/or eltrombopag (human hepatocytes; ID 36, pitavastatin AMT 100 nmol at TIME 15, TIME 45 min): 416.81 nmol | transporter‐mediated clearance (V max.up.E.WB/K m.up.E.WB) (human hepatocytes; eltrombopag, whole body scaled): 1625 mL/min/liver | K m.up.X or K I.up.X (human hepatocytes; from micro‐rate constants, Eq. 7): 3,138 ng/mL | passive efflux clearance out of the cell (human hepatocytes; k bX scaled to a clearance): 1.3 (1.05–1.95) µL/min/1 × 10^6 cells | P dif.X (human hepatocytes; k fX scaled to a clearance): 52 (40–64) µL/min/1 × 10^6 cells | k bX, passive rate constant out of the cell (human hepatocytes; [5]): 0.43 (0.35–0.65) /min | k fX, passive rate constant into the cell (human hepatocytes; [5]): 0.05 (0.04–0.06) /min | V max.up..X, maximum uptake velocity (human hepatocytes; scaled to whole liver, Eq. 6): 5.1 × 10^6 ng/min/liver | P def.X, passive diffusion out of the cell (human hepatocytes; scaled to whole liver, Eq. 9): 307 mL/min/liver | V max.up (human hepatocytes; transporter rate constants transformed, Eq. 6): 49 (28–116) pmol/min/1 × 10^6 cells
Structure (SMILES): CC1=NN(c2ccc(C)c(C)c2)C(=O)/C1=N\Nc1cccc(-c2cccc(C(=O)O)c2)c1O [eltrombopag, Eltrombopag]
IC50 [2]: 2 to 20 µM | binding of eltrombopag to plasma proteins [3]: 99.8% | f u.pl.E, eltrombopag fraction unbound in the plasma [3]: 0.002 | blood:plasma ratio ([3]; eltrombopag): 0.78 | effect on transporter‐mediated uptake of pitavastatin (human hepatocytes; 30 nmol/mL eltrombopag, 15 minute preincubation, overcome at 10–100 nmol/mL pitavastatin): reduced | k aX, transporter association rate constant (human hepatocytes; [6]): 0.26 (0.23–0.31) /nmol/min | k dX, transporter dissociation rate constant (human hepatocytes; [6]): 1.57 (1.42–2) /min | k tX, transporter translocation rate constant (human hepatocytes; [6]): 0.27 (0.24–0.32) /min | AUC0−∞ (literature) [4, 7]: 145 (101–208) h•µg/mL | tmax (h) [4, 7]: 2.5 (2–4) h | Cmax ([4]; eltrombopag only, single 75 mg, plasma, mean (95% CI)): 10.9 (8.7–13.6) µg/mL | K a, absorption rate constant ([4]; eltrombopag, used for I in.max): 0.0084 min⁻¹ | F a F g, fraction absorbed multiplied by the intestinal availability ([4]; eltrombopag): 0.5 | parent in urine ([4]; eltrombopag): 0 parent in urine [ ^25 ] | V c.X, volume of the central compartment / volume of distribution ([4]; eltrombopag, plasma): 2940 [ ^5 ] mL
